Activity calls are given as the source filed them.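 The calls were made as follows: active = compounds whose averaged half-maximal activating concentration falls below 100 micromolar; inactive = the rest.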
molecular target: intestinal alkaline phosphatase (Alpi), mouse; assay: activators of mouse IAP enzyme, SAR follow-up, biochemical, luminescence, set 2 (AID 588609); conditions: purified muIAP, CDP-Star luminescence, 30 min

| EC50 | Compound |
| --- | --- |
| 7.44 µM | CN(C)S(=O)(=O)c1cccc(NC(=S)NCCC(c2ccccc2)c2ccccc2)c1 |
| 47.7 µM | Cc1ccccc1CNC(=S)Nc1ccc(S(=O)(=O)N(C)C)cc1 |
| 43.9 µM | CCN(CC)S(=O)(=O)c1ccc(NC(=S)NC(c2ccccc2)c2ccccc2)cc1 |
| 42.7 µM | Cc1ccc(S(=O)(=O)N(C)C)cc1NC(=S)NC(C)CCC(C)C (stereo not given) |
| > 100 µM (inactive) | CN(C)S(=O)(=O)c1cccc(NC(=S)NCCc2ccc(F)cc2)c1 |
| 12.9 µM | CC1CCN(S(=O)(=O)c2ccc(NC(=S)NCCC(c3ccccc3)c3ccccc3)cc2)CC1 |
| 43.7 µM | COc1ccc(CNC(=S)Nc2ccc(S(=O)(=O)N3CCCCC3)cc2)cc1OC |
| > 100 µM (inactive) | Cc1ccc(S(=O)(=O)N(C)C)cc1NC(=S)NC1CCN(Cc2ccccc2)CC1 |
| > 100 µM (inactive) | O=C(CCc1ccccc1)NC(=S)Nc1cccc(S(=O)(=O)N2CCCC2)c1 |
| > 100 µM (inactive) | CN(C)S(=O)(=O)c1ccc(NC(=S)NCCc2ccccc2)cc1 |
| 7.3 µM | CC1CCN(S(=O)(=O)c2ccc(NC(=S)NC(c3ccccc3)c3ccccc3)cc2)CC1 |
| 12.7 µM | O=S(=O)(c1ccc(NC(=S)NC(c2ccccc2)c2ccccc2)cc1)N1CCCC1 |
| 32.1 µM | CN(C)S(=O)(=O)c1cccc(NC(=S)NC(C)(C)CC(C)(C)C)c1 |
| 6.81 µM | CC1CCN(S(=O)(=O)c2ccc(NC(=S)NCC(c3ccccc3)c3ccccc3)cc2)CC1 |
| 53.7 µM | COc1cccc(CCNC(=S)Nc2cccc(S(=O)(=O)N(C)C)c2)c1 |
| > 100 µM (inactive) | CN(C)CC(C)(C)CNC(=S)Nc1cccc(S(=O)(=O)N(C)C)c1 |
| 15.3 µM | CN(C)S(=O)(=O)c1cccc(NC(=S)NCC(c2ccccc2)c2ccccc2)c1 |
| > 100 µM (inactive) | CN(C)S(=O)(=O)c1cccc(NC(=S)NCCCN2CCCC2=O)c1 |
| 44.7 µM | CC(CCc1ccccc1)NC(=S)Nc1cccc(S(=O)(=O)N(C)C)c1 (stereo not given) |
| > 100 µM (inactive) | Cc1ccc(C)c(NC(=S)Nc2ccc(S(=O)(=O)N3CCCCC3)cc2)c1 |
| 60.6 µM | COc1ccc(CCNC(=S)Nc2ccc(S(=O)(=O)N3CCCCC3)cc2)cc1 |
| > 100 µM (inactive) | CN(C)S(=O)(=O)c1cccc(NC(=S)NCCC(=O)N2CCCC2)c1 |

| EC50 | Compound |
| --- | --- |
| > 100 µM (inactive) | CN(C)S(=O)(=O)c1ccc(NC(=S)NCCc2cccc(O)c2)cc1 |
| 87.5 µM | CC(CNC(=S)Nc1cccc(S(=O)(=O)N(C)C)c1)N1CCN(c2ccccc2)CC1 (stereo not given) |
| 51.5 µM | Cc1ccc(S(=O)(=O)N(C)C)cc1NC(=S)NC(C)CCCC(C)C (stereo not given) |
| > 100 µM (inactive) | O=C(NC(=S)Nc1cc(S(=O)(=O)N2CCOCC2)ccc1O)c1ccco1 |
| 67.1 µM | COc1ccccc1CNC(=S)Nc1ccc(S(=O)(=O)N(C)C)cc1 |
| > 100 µM (inactive) | Cc1ccc(S(=O)(=O)N(C)C)cc1NC(=S)NC(=O)C12CC3CC(CC(C3)C1)C2 |
| 5.37 µM | O=S(=O)(c1ccc(NC(=S)NCC(c2ccccc2)c2ccccc2)cc1)N1CCCCC1 |
| 20.2 µM | CN(C)S(=O)(=O)c1cccc(NC(=S)NCCc2cccc(F)c2)c1 |
| 3.23 µM | CN(C)S(=O)(=O)c1ccc(NC(=S)NC(c2ccccc2)c2ccccc2)cc1 |
| 56.9 µM | CN(C)S(=O)(=O)c1cccc(NC(=S)NCCc2cccc(Br)c2)c1 |
| 26 µM | CN(C)S(=O)(=O)c1cccc(NC(=S)NC(c2ccccc2)c2ccccc2)c1 |
| 4.38 µM | O=S(=O)(c1ccc(NC(=S)NC(c2ccccc2)c2ccccc2)cc1)N1CCCCC1 |
| 45.1 µM | COc1cccc(CNC(=S)Nc2ccc(S(=O)(=O)N(C)C)cc2)c1 |
| 12.2 µM | CN(C)S(=O)(=O)c1cccc(NC(=S)NCc2ccc(Cl)cc2)c1 |
| > 100 µM (inactive) | CN(C)CCCNC(=S)Nc1cccc(S(=O)(=O)N(C)C)c1 |
| 60.5 µM | COc1ccc(CCNC(=S)Nc2ccc(S(=O)(=O)N3CCCCC3)cc2)cc1OC |
| 13.4 µM | CN(C)S(=O)(=O)c1ccc(NC(=S)NCC(c2ccccc2)c2ccccc2)cc1 |
| > 100 µM (inactive) | O=c1c2ccccc2[nH]c(=S)n1-c1cccc(S(=O)(=O)N2CCCC2)c1 |
| 36.1 µM | O=S(=O)(c1ccc(NC(=S)NCc2cccc(Cl)c2)cc1)N1CCCCC1 |
| 51.6 µM | CN(C)S(=O)(=O)c1cccc(NC(=S)NCCc2ccccc2)c1 |
| > 100 µM (inactive) | CCN(CC)c1ccc(C(=O)NC(=S)Nc2cc(S(=O)(=O)N3CCOCC3)ccc2-n2cncn2)cc1 |
| 9.09 µM | O=S(=O)(c1ccc(NC(=S)NCC(c2ccccc2)c2ccccc2)cc1)N1CCCC1 |

| EC50 | Compound |
| --- | --- |
| 44.5 µM | O=S(=O)(c1ccc(NC(=S)NCCC(c2ccccc2)c2ccccc2)cc1)N1CCCCC1 |
| > 100 µM (inactive) | CN(C)S(=O)(=O)c1cccc(NC(=S)NCCN2CCCC2)c1 |
| 28.5 µM | O=S(=O)(c1ccc(NC(=S)NCc2cccc(F)c2)cc1)N1CCCCC1 |
| > 100 µM (inactive) | CC1CC(NC(=S)Nc2cccc(S(=O)(=O)N(C)C)c2)CC(C)N1 (stereo not given) |
| 19.5 µM | CCN(CC)S(=O)(=O)c1ccc(NC(=S)NCC(c2ccccc2)c2ccccc2)cc1 |
| 12.3 µM | CCCCCCC(C)NC(=S)Nc1cc(S(=O)(=O)N(C)C)ccc1C (stereo not given) |
| > 100 µM (inactive) | CCN(CC)CCCNC(=S)Nc1cccc(S(=O)(=O)N(C)C)c1 |
| 76.9 µM | CCN(CC)S(=O)(=O)c1ccc(NC(=S)NCCC(c2ccccc2)c2ccccc2)cc1 |
| > 100 µM (inactive) | Cc1ccc(S(=O)(=O)N(C)C)cc1NC(=S)NCCCn1ccnc1 |
| 73.2 µM | Cc1ccc(CNC(=S)Nc2ccc(S(=O)(=O)N(C)C)cc2)cc1 |
| > 100 µM (inactive) | CN(CCc1ccccc1)C(=S)Nc1cccc(S(=O)(=O)N(C)C)c1 |
| > 100 µM (inactive) | CN(C)S(=O)(=O)c1cccc(NC(=S)NCCc2cccc(O)c2)c1 |
| 86 µM | CN(C)S(=O)(=O)c1cccc(NC(=S)NCCc2ccc(Br)cc2)c1 |
| 25.9 µM | Cc1ccc(CNC(=S)Nc2cccc(S(=O)(=O)N(C)C)c2)cc1 |
| 48.5 µM | CN(C)S(=O)(=O)c1ccc(NC(=S)NCCc2cccc(Br)c2)cc1 |
| > 100 µM (inactive) | O=C(NC(=S)Nc1cc(S(=O)(=O)N2CCOCC2)ccc1N1CCOCC1)c1ccco1 |
| 20.1 µM | CN(C)S(=O)(=O)c1ccc(NC(=S)NCCC(c2ccccc2)c2ccccc2)cc1 |
| > 100 µM (inactive) | CN(C)S(=O)(=O)c1ccc(NC(=S)NCCN2CCCC2)cc1 |
| 59.3 µM | O=S(=O)(c1ccc(NC(=S)NCCC(c2ccccc2)c2ccccc2)cc1)N1CCCC1 |
| > 100 µM (inactive) | CN(CCc1ccccn1)C(=S)Nc1cccc(S(=O)(=O)N(C)C)c1 |
| > 100 µM (inactive) | CN(C)S(=O)(=O)c1cccc(NC(=S)NCCCn2ccnc2)c1 |

From PubChem BioAssay AID588609 (Sanford-Burnham Center for Chemical Genomics, 2011)
